Source: ChEMBL document CHEMBL1201862, “PubChem BioAssay data set” (2004)
Activity calls are given as the source filed them. Rule as the data show it: actives have a measured IC50 and inactives only a lower limit.

Experiments:
Assay type in all cases: functional
[1] = target: T1, Sentrin-specific protease 7 (Homo sapiens, UniProt Q9BQF6);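 also: Luminescence-based dose-response confirmation of ultra-high-throughput screening hits, measuring inhibition of SENP7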
T1 sequence (Q9BQF6 whole entry): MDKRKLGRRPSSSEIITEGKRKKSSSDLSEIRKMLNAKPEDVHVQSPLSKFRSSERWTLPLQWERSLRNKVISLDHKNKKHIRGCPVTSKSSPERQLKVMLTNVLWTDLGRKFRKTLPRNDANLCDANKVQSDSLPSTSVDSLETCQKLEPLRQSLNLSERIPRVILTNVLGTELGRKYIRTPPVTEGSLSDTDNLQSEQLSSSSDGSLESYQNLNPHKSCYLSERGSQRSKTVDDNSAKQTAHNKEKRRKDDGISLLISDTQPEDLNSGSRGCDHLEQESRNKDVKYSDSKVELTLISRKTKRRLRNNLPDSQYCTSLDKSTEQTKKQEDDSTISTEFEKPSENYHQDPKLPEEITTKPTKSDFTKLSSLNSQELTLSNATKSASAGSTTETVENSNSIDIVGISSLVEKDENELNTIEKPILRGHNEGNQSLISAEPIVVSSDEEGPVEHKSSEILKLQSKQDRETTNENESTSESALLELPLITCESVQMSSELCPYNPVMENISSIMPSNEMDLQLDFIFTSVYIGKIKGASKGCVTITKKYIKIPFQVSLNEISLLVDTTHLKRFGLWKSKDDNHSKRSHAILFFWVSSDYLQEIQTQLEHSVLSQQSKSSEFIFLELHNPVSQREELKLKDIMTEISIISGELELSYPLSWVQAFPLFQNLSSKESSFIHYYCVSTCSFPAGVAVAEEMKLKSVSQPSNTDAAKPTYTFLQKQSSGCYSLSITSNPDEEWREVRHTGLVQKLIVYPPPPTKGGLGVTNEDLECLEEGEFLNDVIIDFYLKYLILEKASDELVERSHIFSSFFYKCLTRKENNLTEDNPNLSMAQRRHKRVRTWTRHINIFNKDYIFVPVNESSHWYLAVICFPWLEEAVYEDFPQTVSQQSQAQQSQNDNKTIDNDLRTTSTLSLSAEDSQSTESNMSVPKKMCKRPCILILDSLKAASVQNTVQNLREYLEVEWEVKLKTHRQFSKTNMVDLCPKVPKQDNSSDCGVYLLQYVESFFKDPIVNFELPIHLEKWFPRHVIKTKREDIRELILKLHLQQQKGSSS

[2] = target: T2, Sentrin-specific protease 8 (Homo sapiens, UniProt Q96LD8);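 also: luminescence read-out of SENP8 inhibition, dose-response confirmation following an ultra-high-throughput screen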
T2 sequence (Q96LD8 whole entry): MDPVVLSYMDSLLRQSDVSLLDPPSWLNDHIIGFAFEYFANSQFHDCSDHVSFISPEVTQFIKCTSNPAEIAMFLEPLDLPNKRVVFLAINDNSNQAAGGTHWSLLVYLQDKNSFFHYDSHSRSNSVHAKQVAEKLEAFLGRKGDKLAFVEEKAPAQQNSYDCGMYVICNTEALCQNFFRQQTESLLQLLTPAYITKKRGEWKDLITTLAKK

[3] = target: T3, Apoptotic protease-activating factor 1 (Homo sapiens, UniProt O14727)
T3 sequence (O14727 whole entry): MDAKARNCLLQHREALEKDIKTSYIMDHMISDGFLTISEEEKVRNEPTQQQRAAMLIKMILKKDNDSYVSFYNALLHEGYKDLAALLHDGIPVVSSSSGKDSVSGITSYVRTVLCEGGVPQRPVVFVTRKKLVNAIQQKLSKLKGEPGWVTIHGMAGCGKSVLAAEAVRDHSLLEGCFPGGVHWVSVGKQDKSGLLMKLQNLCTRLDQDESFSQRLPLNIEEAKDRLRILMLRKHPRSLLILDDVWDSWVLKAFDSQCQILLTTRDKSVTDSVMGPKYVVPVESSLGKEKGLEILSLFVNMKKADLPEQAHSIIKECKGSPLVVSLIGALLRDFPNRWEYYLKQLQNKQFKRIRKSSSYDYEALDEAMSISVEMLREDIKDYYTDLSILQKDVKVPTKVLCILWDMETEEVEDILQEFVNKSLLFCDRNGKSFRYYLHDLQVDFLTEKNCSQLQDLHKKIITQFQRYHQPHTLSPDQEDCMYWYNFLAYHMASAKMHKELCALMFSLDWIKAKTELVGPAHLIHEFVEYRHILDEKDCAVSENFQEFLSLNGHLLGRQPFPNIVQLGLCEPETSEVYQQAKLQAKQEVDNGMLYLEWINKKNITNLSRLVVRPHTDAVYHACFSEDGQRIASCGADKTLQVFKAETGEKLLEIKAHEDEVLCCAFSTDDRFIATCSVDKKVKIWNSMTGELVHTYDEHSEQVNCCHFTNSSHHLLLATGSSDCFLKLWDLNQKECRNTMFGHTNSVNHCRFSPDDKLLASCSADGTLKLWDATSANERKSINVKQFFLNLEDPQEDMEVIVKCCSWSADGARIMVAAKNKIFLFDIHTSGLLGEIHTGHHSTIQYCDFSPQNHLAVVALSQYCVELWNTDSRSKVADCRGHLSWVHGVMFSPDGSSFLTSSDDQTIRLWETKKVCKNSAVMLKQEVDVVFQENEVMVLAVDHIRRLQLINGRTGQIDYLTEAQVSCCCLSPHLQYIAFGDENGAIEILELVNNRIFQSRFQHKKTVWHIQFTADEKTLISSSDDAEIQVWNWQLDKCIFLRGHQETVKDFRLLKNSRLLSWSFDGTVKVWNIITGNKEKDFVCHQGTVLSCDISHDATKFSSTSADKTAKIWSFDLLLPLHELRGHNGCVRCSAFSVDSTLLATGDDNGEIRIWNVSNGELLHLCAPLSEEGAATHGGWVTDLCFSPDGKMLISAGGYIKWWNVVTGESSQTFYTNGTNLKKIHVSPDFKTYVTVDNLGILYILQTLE

Measured: IC50

COc1cc2c(cc1OC)-c1c(OC)c(OC)cc3c1[C@H](C2)N(C)CC3
active: [1] 7.64 µM | [2] 5.13 µM | [3] 2.82 µM

O=C1C(Cl)=C(N2CCC(C(=O)O)CC2)C(=O)c2ccccc21
active: [1] 29.1 µM | [2] 20.2 µM | [3] 13.4 µM
